From patent publication US20160318856A1, “Substituted Urea eIF2alpha Kinase Activators” (THE BRIGHAM AND WOMEN'S HOSPITAL, INC., priority 2013, published 2016)
Where two headings read alike, the source gives them in different places.

How the values were obtained:
Panc-1 = assay: cell proliferation (SRB) assay, Panc-1; type: cell-based; conditions: Homo sapiens, Table 7
Method: (§1) Cells were seeded in 96-well plates and maintained for 5 days in the presence of 0.5 to 20 μM of individual compound, and cell proliferation was measured by the sulforhodamine B (SRB) assay as described previously (see, for example, Palakurthi, S. S. et al. Cancer Research 2000, 60(11), 2919-2925). Briefly, at the end of a 5-day treatment, cells were fixed in 10% cold trichloroacetic acid. Cell number was estimated by measuring the remaining bound dye of sulforhodamine B after washing. The percentage of growth was calculated by using the equation: 100×[(T−T0)/(C−T0)], where T and C represent the absorbance in treated and control cultures at Day 5, and T0 at time zero, respectively. If T is less than T0, cell death has occurred and can be calculated from 100×[(T−T0)/T0].
(§2) The compounds shown in Table 7 were evaluated using for activation of HRI using the dual luciferase surrogate eIF2α phosphorylation assay (see, for example, Chen, T. et al. Nature Chem Biol 2011, 7, 610-616) and for inhibition of cell proliferation using the SRB assay (see, for example, Palakurthi, S. S. et al. Cancer Res 2000, 60, 2919-2925) as described above.

[1] = test system: CRL-2813 human melanoma cancer cells; assay: cell proliferation (SRB) assay, CRL-2813; type: cell-based
In short: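 Cells exposed 5 days to 0.5–20 μM compound, then TCA-fixed and stained with sulforhodamine B. Growth as 100×[(T−T0)/(C−T0)] from absorbance of treated, control and time-zero cultures; cell death as 100×[(T−T0)/T0] where T is below T0.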

[2] = test system: eIF2α phosphorylation (eIF2•GTP•Met-tRNAi ternary complex; HRI activation); assay: surrogate dual luciferase eIF2α phosphorylation (ternary complex) assay; type: cell-based, human; conditions: for maximal fold induction: Homo sapiens; for C3X: Calculated concentration of compound that will cause three-fold increase in the surrogate eIF2α phosphorylation assay: Table 7
In short: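 Cell-based dual luciferase reporter: firefly luciferase behind the ATF-4 5′UTR (uORFs) and renilla luciferase behind a uORF-free 5′UTR, read with a dual glow kit. Activity given as firefly/renilla ratio normalised to DMSO wells set at 1, with a rising ratio reflecting reduced ternary complex (e.g., HRI activation).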

ASPC-1 = assay: cell proliferation assay, ASPC-1; type: cell-based; conditions: Homo sapiens, ASPC1; SRB assay, Table 7; read-out: IC50 ASPC-1
Method: as §1, §2

NIH/3T3 fibroblast cells = assay: cell proliferation (SRB) assay, NIH/3T3; type: cell-based; conditions: for fold higher potency on cancer cells compared to non-transformed cells: CRL-2813 human melanoma vs NIH-3T3 fibroblast
Method: as §1
The experiments were conducted in triplicate, and each experiment was independently performed three times. IC50=effective dose of drug that inhibit cell proliferation by 50%. Data are shown as Mean±S.E.M.
Compounds I-6p, I-17, I-18 and I-20 were tested in NIH/3T3 fibroblast and CRL-2813 melanoma cancer cells in cell proliferation assay. The experiment was conducted in triplicate and each experiment was independently performed three times. Data are shown as Mean IC50±S.E.M.

[3] = test system: CRL-2813 human melanoma cancer cells transfected with HRI-targeting or non-targeting siRNA; assay: cell proliferation (SRB) assay after HRI knockdown; type: cell-based; conditions: for fold higher IC50 values in cells transfected with HRI-targeting siRNA vs. non-targeting siRNA: CRL-2813 cells, FIG. 10; for dependence of inhibition of cell proliferation on HRI: HRI siRNA vs non-target siRNA, CRL-2813 (also MCF-7); for fold difference in resistance of cells to inhibition of cell proliferation upon HRI knockdown: average, CRL-2813, FIG. 8
Method: as §1
Cell proliferation is a meaningful read-out for determining the specificity of a compound as it captures both on-target and off-target effects of the compound under study. […] If these compounds specifically activate HRI and this activity is required for the inhibition of cell proliferation, then reducing the expression of HRI should blunt their effect on cell proliferation. For this purpose, expression of HRI was knocked down in CRL-2813 human melanoma (about 70% knockdown efficiency) and MCF-7 human breast cancer cells (about 90% knockdown efficiency). These two cell lines were chosen because the HRI knockdown efficiency is lower in CRL-2813 than in MCF-7 cells providing a sort of dose-response data that correlates knockdown efficiency with the resistance of cells to inhibition of cell proliferation. […] Referring to FIG. 5A, CRL-2813 human melanoma cancer cells, and (FIG. 5B) MCF-7 human breast cancer cells were transfected with HRI targeted or non-targeted siRNA, treated with the indicated concentrations of I-6p and cell proliferation was measured by SRB assay. Calculated IC50 for all four compounds tested in CRL-2813 human melanoma cancer cells and MCF-7 human breast cancer cells transfected with non-target siRNA control (NTC) or HRI is shown in FIG. 5C and FIG. 5D, respectively. The experiment was conducted in triplicate and each experiment was independently performed three times. Data are shown as Mean±S.E.M. *NTC=non-target siRNA control.
Referring to FIG. 8, CRL-2813 human melanoma cancer cells were transfected with HRI targeted or non-targeted siRNA, treated with the indicated concentrations of (A) I-14, (B) I-15, (C) III-4 and (D) III-5 and cell proliferation was measured by SRB assay. Calculated IC50 for all four compounds tested in CRL-2813 human melanoma cancer cells transfected with non-target siRNA control (NTC) or HRI is shown in (E). The experiment was conducted in triplicate and each experiment was independently performed three times. Data are shown as Mean±S.E.M. *NTC=non-target siRNA control, IC50=effective dose of drug that inhibit cell proliferation by 50%.
In general, if the affinity of compounds for their molecular target is increased this should result in higher specificity of the compounds in the cell proliferation assay. […] These five compounds, two with average and three with high potency, were tested in cell proliferation assay using CRL-2813 cells transfected with non-targeted siRNA or HRI-targeted siRNA as described above.

[4] = Homo sapiens, CRL2813, SRB assay, Table 7, read-out: IC50 CRL-2813
[5] = DMSO = 1, maximum tested concentration 20 μM, read-out: Emax: Maximum activity of compound expressed as fold over vehicle
[6] = Homo sapiens, CRL2813, cell proliferation assay, Table 3, cell line not named, values equal CRL-2813 values of Table 8, read-out: IC50
[7] = surrogate eIF2α phosphorylation assay, Table 3, read-out: Emax (F/R)
[8] = Homo sapiens, CRL2813, cell proliferation assay, Table 4, cell line not named, read-out: IC50
[9] = surrogate eIF2α phosphorylation assay, Table 4, read-out: Emax (F/R)

| IC50 (Panc-1) [µM] | IC50 [1, 4] [µM] | IC50 (ASPC-1) [µM] | Structure (SMILES) | maximal fold induction [2, 5] | C3X: Calculated concentration of compound that will cause three-fold increase in the surrogate eIF2α phosphorylation assay [2] [µM] | other results |
| --- | --- | --- | --- | --- | --- | --- |
| 2.7 | 1.9 | 4 | NC(=O)c1cc(C(F)(F)F)ccc1O[C@H]1CC[C@H](NC(=O)Nc2cccc(C(F)(F)F)c2)CC1 | 8 | 7 | – |
| 2.5 | 2.1 | 3 | NC(=O)c1cc(O[C@H]2CC[C@H](NC(=O)Nc3cccc(C(F)(F)F)c3)CC2)ccc1C(F)(F)F | 2.8 | >20 | – |
| 1.9 | 1.4 | 3.2 | NC(=O)c1cc(C(F)(F)F)ccc1O[C@H]1CC[C@H](NC(=O)Nc2cccc(OC(F)(F)F)c2)CC1 | 6 | 8 | – |
| 3 | 3 | 2.9 | NC(=O)c1cc(O[C@H]2CC[C@H](NC(=O)Nc3cccc(OC(F)(F)F)c3)CC2)ccc1C(F)(F)F | 5 | 14 | – |
| 1.5 | 0.9 | 1 | O=C(Nc1cccc(OC(F)(F)F)c1)N[C@H]1CC[C@H](Oc2ccc(C(F)(F)F)cc2)CC1 | 28 | 0.2 | – |
| 2.5 | 1.7 | 2.8 | CC(=O)Nc1cc(C(F)(F)F)ccc1O[C@H]1CC[C@H](NC(=O)Nc2cccc(OC(F)(F)F)c2)CC1 | 5 | 4 | – |
| 1.7 | 1.9 | 2.6 | CC(=O)Nc1cc(C(F)(F)F)ccc1O[C@H]1CC[C@H](NC(=O)Nc2cccc(C(F)(F)F)c2)CC1 | 4.2 | 3.5 | – |
| 4 | 4 | > 10 | O=C(Nc1cccc(C(F)(F)F)c1)N[C@H]1CC[C@H](Oc2ccc(C(F)(F)F)cc2[N+](=O)[O-])CC1 | 13 | 5 | – |
| 1.1 | 0.5 | 0.8 | O=C(Nc1cccc(OC(F)(F)F)c1)N[C@H]1CC[C@H](Oc2ccc(C(F)(F)F)cc2[N+](=O)[O-])CC1 | 12 | 0.5 | – |
| 0.9 | 0.5 | 0.9 | O=C(Nc1cccc(C(F)(F)F)c1)N[C@H]1CC[C@H](Oc2ccc(C(F)(F)F)cc2)CC1 | 25 | 0.4 | – |
| 3 | 2.1 | – | O=C(Nc1cccc(C(F)(F)F)c1)N[C@H]1CC[C@H](Oc2ccc(F)cc2)CC1 | 11 | 2.5 | – |
| – | – | – | O=C(Nc1ccc(OC(F)(F)F)cc1)NC1CCC(Oc2ccc(F)cc2)CC1 (centres unmarked) [Compound I-6p] | – | – | fold higher potency on cancer cells compared to non-transformed cells (NIH/3T3 fibroblast cells): five-fold higher potency; IC50 (NIH/3T3 fibroblast cells; NIH/3T3, Table 5, Mean±S.E.M., read-out: IC50): 13.6 ± 0.8 µM; IC50 (NIH/3T3 fibroblast cells; NIH/3T3, Table 8, Mean IC50±S.E.M., read-out: IC50 of compounds): 13.6 ± 0.8 µM; IC50 ([1]; CRL-2813, Table 5, Mean±S.E.M., read-out: IC50): 2.7 ± 0.1 µM; IC50 ([1]; CRL-2813, Table 8, Mean IC50±S.E.M., read-out: IC50 of compounds): 2.7 ± 0.1 µM; IC50 ([1]; cell proliferation assay (SRB, 5 days), cell line not named in Table 1, values equal CRL-2813 values of Tables 5/8, read-out: IC50): 2.7 ± 0.1 µM; Emax (F/R) ([2]; ternary complex assay, F/R normalized to vehicle (DMSO = 1)): 15.32 F/R |
| – | – | – | O=C(Nc1cccc(C(F)(F)F)c1)NC1CCC(Oc2ccccc2F)CC1 (centres unmarked) [Compound I-14, 1-(4-(2-Fluorophenoxy)cyclohexyl)-3-(3-(trifluoromethyl)phenyl)urea] | – | – | fold higher IC50 values in cells transfected with HRI-targeting siRNA vs. non-targeting siRNA [3]: ~7 fold; dependence of inhibition of cell proliferation on HRI [3]: dependent on HRI; fold difference in resistance of cells to inhibition of cell proliferation upon HRI knockdown [3]: ~8 fold; IC50 [1, 6]: 2.45 ± 0.9 µM; maximal fold induction [2, 7]: 7.98 |
| – | – | – | O=C(Nc1cccc(C(F)(F)F)c1)NC1CCC(Oc2cccc(F)c2)CC1 (centres unmarked) [Compound I-15, 1-(4-(3-Fluorophenoxy)cyclohexyl)-3-(3-(trifluoromethyl)phenyl)urea] | – | – | fold higher IC50 values in cells transfected with HRI-targeting siRNA vs. non-targeting siRNA [3]: ~7 fold; dependence of inhibition of cell proliferation on HRI [3]: dependent on HRI; fold difference in resistance of cells to inhibition of cell proliferation upon HRI knockdown [3]: ~8 fold; IC50 [1, 6]: 2.4 ± 0.6 µM; maximal fold induction [2, 7]: 7.23 |
| – | – | – | O=C(Nc1cccc(C(F)(F)F)c1)NC1CCC(Oc2ccc(C(F)(F)F)cc2)CC1 (centres unmarked) [Compound I-18, 1-(4-(4-(Trifluoromethyl)phenoxy)cyclohexyl)-3-(3-(trifluoromethyl)phenyl)urea] | – | – | fold higher potency on cancer cells compared to non-transformed cells (NIH/3T3 fibroblast cells): highest discrimination between cancer and non-cancerous cells; IC50 (NIH/3T3 fibroblast cells; Mus musculus, NIH3T3, NIH/3T3, Table 8, Mean IC50±S.E.M., read-out: IC50 of compounds): 3.4 ± 0.1 µM; fold higher IC50 values in cells transfected with HRI-targeting siRNA vs. non-targeting siRNA [3]: ~7.5 fold; IC50 ([1]; Homo sapiens, CRL2813, CRL-2813, Table 8, Mean IC50±S.E.M., read-out: IC50 of compounds): 0.46 ± 0.1 µM; IC50 [1, 6]: 0.46 ± 0.1 µM; maximal fold induction [2, 7]: 25.1 |
| – | – | – | O=C(Nc1cccc(C(F)(F)F)c1)NC1CCC(OCc2ccc(F)cc2)CC1 (centres unmarked) [III-4, 1-(4-((4-Fluorobenzyl)oxy)cyclohexyl)-3-(3-(trifluoromethyl)phenyl)urea] | – | – | dependence of inhibition of cell proliferation on HRI [3]: dependent on HRI; IC50 [1, 8]: 2.65 ± 0.8 µM; maximal fold induction [2, 9]: 9.58 |
| – | – | – | O=C(Nc1cccc(C(F)(F)F)c1)NC1CCCCC1Oc1ccc(C(F)(F)F)cc1 (centres unmarked) [III-5, 1-(2-(4-(Trifluoromethyl)phenoxy)cyclohexyl)-3-(3-(trifluoromethyl)phenyl)urea] | – | – | dependence of inhibition of cell proliferation on HRI [3]: dependent on HRI; IC50 [1, 8]: 3.1 ± 1.1 µM; maximal fold induction [2, 9]: 5.89 |
